# According to patent US20180142211A1, “METHODS OF MESENCHYMAL STEM CELL MOBILIZATION AND EXPANSION” (Biokine Therapeutics Ltd, priority 2015, published 2018):
# Entries after “also recorded” stand apart in the source; their conditions may differ.
# Assays:
# MSCs = conditions: without cytokines such as PDGF, VEGF, IGF-1 or SCF; cited from earlier work
# CXCR4 [1] = target: T1, CXCR4 (Homo sapiens, UniProt P61073); assay: Phase I study: receptor occupancy and pharmacodynamic effect; assay type: in vivo; parameters: endogenous in cells; host or cells: peripheral blood cells (CD34+, lymphocyte, mononuclear populations) of healthy volunteers; conditions: post dosing
# Source text: (§1) Mean CD34+ count at baseline was 5.81/μL.
# Target sequence in this assay (P61073 whole entry): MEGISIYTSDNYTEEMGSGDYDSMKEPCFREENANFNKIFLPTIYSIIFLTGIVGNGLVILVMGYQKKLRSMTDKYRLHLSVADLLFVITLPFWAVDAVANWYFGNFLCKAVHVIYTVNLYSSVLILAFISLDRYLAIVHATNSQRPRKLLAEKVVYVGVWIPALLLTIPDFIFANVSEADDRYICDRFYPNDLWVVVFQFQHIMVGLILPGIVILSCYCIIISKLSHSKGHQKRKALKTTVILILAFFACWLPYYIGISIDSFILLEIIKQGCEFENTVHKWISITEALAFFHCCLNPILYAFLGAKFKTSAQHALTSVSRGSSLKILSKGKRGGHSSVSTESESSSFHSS
# HPC colony forming cells = assay: Phase I study: HPC colony forming cell mobilization; assay type: in vivo, human; conditions: 4-8 hr post injection
# Source text: as §1
# [2] = human, in vivo
# Description: To test the effect of BL-8040 (SEQ ID NO: 1) on mesenchymal stem cell mobilization a two-part study was performed. The first part of the study was randomized, double-blind, placebo-controlled dose escalation study. In each cohort, six volunteers were administrated twice (altogether) on day one and two with BL-8040 (First cohort 0.5 mg/kg, Second cohort 0.75 mg/kg and Third 1.0 mg/kg) and 2 were administrated with placebo. […] BL-8040's safety, tolerability and pharmacokinetic profile were also evaluated on this part.
# [3] = test system: Mesenchymal Stem Cells (MSCs); assay: Phase I study: MSC mobilization, MesenCult assay; assay type: in vivo, human; conditions: for MSC mobilization into peripheral blood, single agent: MesenCult
# Description: To evaluate the number of MSCs in the blood, a MesenCult assay was used at different time points following BL-8040 administration (0.75 mg/Kg FIGS. 1-2, or 1 mg/Kg FIGS. 3-4)) to healthy subjects-as described above.
# White blood cells (WBCs) obtained from 100 μl blood, were plated in MesenCult medium (2 ml).
# The number of MSCs colonies and MS cells were visually scored 15 days later, using a light microscope, and the frequency of MSC colonies and MSCs was calculated.
# CXCR4 [4] = target: T1, CXCR4; conditions: cited from earlier work
# Target sequence in this assay (P61073 whole entry, species assumed): as the sequence (P61073 whole entry) above
# [5] = test system: T cells, B cells and NK cells; assay: Phase I study: FACS analysis of lymphocyte mobilization; assay type: in vivo, human
# Source text: as §1
# HSC (CD34+ cells) = assay: Phase I study: mobilization of HSC (CD34+ cells); assay type: in vivo, human
# Source text: as §1
# CD34 (+) cells = conditions: MM patients, combined with G-CSF, single administration; cited from earlier work
# [6] = test system: long term repopulating cells; conditions: mice, single injection; cited from earlier work
# white blood cells (WBC) = assay: Phase I study: WBC mobilization to peripheral blood; assay type: in vivo, human; conditions: 4 hours post dose, baseline 6.31
# Source text: as §1
molecule,measurement,setting,value
c1cc(CN2CCCNCCNCCCNCC2)ccc1CN1CCCNCCNCCCNCC1 [AMD3100],MSC mobilization by the agent alone,MSCs,not sufficient to mobilize MSCs
4F-benzoyl-Arg-Arg-Nal-Cys-Tyr-Cit-Lys-DLys-Pro-Tyr-Arg-Cit-Cys-Arg-NH2 [BL-8040],duration of receptor occupancy and pharmacodynamics effect,CXCR4 [1],≥ 24 h
same,mobilization of HPC colony forming cells,HPC colony forming cells,rapid mobilization
same,appearance in plasma,[2],rapid
same,half-life,[2],short
same,mobilization of Mesenchymal Stem Cells (MSCs),[3]; 4-8 hr post injection,rapid mobilization of MSCs
same,"MSC mobilization into peripheral blood, single agent","[3]; Cohort 2 (0.75 mg/Kg), 15 days culture (FIGS. 1-2), 0.75 mg/kg",mobilizes mesenchymal stem cells (MSCs) into peripheral blood (PB); also recorded: mobilizes MSCs into the PB
same,"MSC mobilization into peripheral blood, single agent","[3]; Cohort 3 (1 mg/Kg), 15 days culture (FIGS. 3-4), 1 mg/kg",mobilizes mesenchymal stem cells (MSCs) into peripheral blood (PB); also recorded: mobilizes MSCs into the PB
same,off-rate of the receptor,CXCR4 [4],slow off-rate
same,Kd,"CXCR4 [4]; high affinity, read-out: affinity of binding to CXCR4",1 to 2 nM
same,"mobilization of T cells, B cells and NK cells",[5],substantial mobilization
same,mean CD34 count,"HSC (CD34+ cells); 0.5 mg/kg, 4 hour post the second dose, placebo 9",38 µL⁻¹
same,mean CD34 count,"HSC (CD34+ cells); 0.5 mg/kg, four hours post dose, baseline 5.81/μL, placebo 8",37 µL⁻¹
same,mean CD34 count,"HSC (CD34+ cells); 0.75 mg/kg, 4 hour post the second dose, placebo 9",46 µL⁻¹
same,mean CD34 count,"HSC (CD34+ cells); 0.75 mg/kg, four hours post dose, baseline 5.81/μL, placebo 8",31 µL⁻¹
same,mean CD34 count,"HSC (CD34+ cells); 1 mg/kg, 4 hour post the second dose, placebo 9",58 µL⁻¹
same,CD34+ count in all subjects,"HSC (CD34+ cells); 1 mg/kg, 4 hours post single administration, all subjects",more than 20 CD34+/μL
same,mean CD34 count,"HSC (CD34+ cells); 1 mg/kg, four hours post dose, baseline 5.81/μL, placebo 8",35 µL⁻¹
same,mobilization of HSC (CD34+ cells),HSC (CD34+ cells); across all doses tested,Dramatic mobilization
same,stem cell mobilization (CD34 (+) cell collection in one aphaeresis procedure),CD34 (+) cells,efficient stem cell mobilizer
same,mobilization of long term repopulating cells for transplantation,[6],sufficient to mobilize enough long term repopulating cells for transplantation
same,mean WBC count,white blood cells (WBC),2.968e+10 L⁻¹
